Measurements published in patent publication US10793594B2, “Antimicrobial compounds and/or modulators of microbial infections and methods of using the same” (Indiana University Research and Technology Corporation, priority 2017, dated 2020).
Where a SMILES comes first, the peptide text is derived from it. [ ]: non-standard residue; d: D form. ξ: configuration not given here. ξPhe(3-F) = NC(Cc1cccc(F)c1)C(=O)O; ξPhe(4-F) = NC(Cc1ccc(F)cc1)C(=O)O

What was measured:
[1] = system: Acinetobacter baumannii; assay: CO-ADD preliminary screen and hit confirmation against Acinetobacter baumannii; format: cell-based; conditions: for hit confirmation against Acinetobacter baumannii: hit confirmation (HC), separated diastereomers; for activity against Acinetobacter baumannii in the preliminary screen: preliminary screen (PS)
Experimental: (§1) Briefly, CO-ADD, The Community for Open Antimicrobial Drug Discovery, is a global open-access screening initiative launched in February 2015 to uncover significant and rich chemical diversity held outside of corporate screening collections. For screening, about 1 mg of pure compound is required and the compounds must be soluble in DMSO. In the preliminary screening, compounds are tested against some ESKAPE pathogens, including, but are not limited to, E. coli, K. pneumoniae, A. baumannii, P. aeruginosa, S. aureus (MRSA), as well as the fungi, for example, C. neoformans and C. albicans. The screen uses a single concentration (e.g., […]) and provides initial activity data to select compounds for further more detailed screening. Active compounds from the preliminary screening are tested in dose response antimicrobial assays to confirm their activity. Active compounds are screened for adverse effects, such as cytotoxicity, critical micelle concentration and membrane depolarization, as well as for their purity. Then, the hit compound is tested against a broader panel of microbes with multidrug-resistant (MDR) and pan-resistant bacterial strains and clinical isolates, with different co-factors (such as serum or lung surfactant). The hit validation includes initial ADMET screening, including haemolysis, microsome and plasma stability and protein binding. See CO-ADD website for more details.
(§2) The minimum inhibitory concentration (MIC) was determined following the CLSI (Clinical Laboratory and Standards Institute) guidelines, identifying the lowest concentration at which full inhibition of the bacteria or fungi has been detected. […] Note that MIC values are discrete values based on the concentration in a specific well.
(§3) Selection of Hits: Samples with MIC (≤16 μg/mL or ≤10 μM) are declared as a hit. For toxicity (cytotoxicity and haemolytic activity) all sample/s with CC50/HC10≤maximum tested concentration are considered active, or toxic. Since the maximum tested concentration is the same for toxicity and antimicrobial activity, no therapeutic index (MIC/CC50 or MIC/HC10) can be calculated and all sample/s with toxic activity are flagged.
Referring now to FIGS. 52 and 53, inhibition of bacterial growth was determined measuring absorbance at 600 nm (OD600), using a Tecan M1000 Pro monochromator plate reader. The percentage of growth inhibition was calculated for each well, using the negative control (media only) and positive control (bacteria without inhibitors) on the same plate as references.
Samples were prepared in DMSO and water to a final testing concentration of 32 μg/mL or 20 μM and serially diluted 1:2 fold for 8 times. Each sample concentration was prepared in 384-well plates, non-binding surface plate (NBS; Corning 3640) for each bacterial/fungal strain or Tissue-culture treated (TC-treated; Corning 3712/3764) black for mammalian cell types, all in duplicate (n=2), and keeping the final DMSO concentration to a maximum of 0.5% DMSO. All the sample preparation was done using liquid handling robots.
For the antibacterial screening, all bacteria were cultured in Cation-adjusted Mueller Hinton broth (CAMHB) at 37° C. overnight. A sample of each culture was then diluted 40-fold in fresh broth and incubated at 37° C. for 1.5-3 h. The resultant mid-log phase cultures were diluted (CFU/mL measured by OD600), then added to each well of the compound containing plates, giving a cell density of 5×10^5 CFU/mL and a total volume of 50 μL. All the plates were covered and incubated at 37° C. for 18 h without shaking.

[2] = system: bacterial biofilms; conditions: cited from earlier work
[3] = system: Cryptococcus neoformans (Cn); assay: CO-ADD antimicrobial screening, growth of Cryptococcus neoformans (MIC); format: cell-based
Experimental: Briefly, CO-ADD, The Community for Open Antimicrobial Drug Discovery, is a global open-access screening initiative launched in February 2015 to uncover significant and rich chemical diversity held outside of corporate screening collections. For screening, about 1 mg of pure compound is required and the compounds must be soluble in DMSO. In the preliminary screening, compounds are tested against some ESKAPE pathogens, including, but are not limited to, E. coli, K. pneumoniae, A. baumannii, P. aeruginosa, S. aureus (MRSA), as well as the fungi, for example, C. neoformans and C. albicans. The screen uses a single concentration (e.g., […]) and provides initial activity data to select compounds for further more detailed screening. Active compounds from the preliminary screening are tested in dose response antimicrobial assays to confirm their activity. […]
The minimum inhibitory concentration (MIC) was determined following the CLSI (Clinical Laboratory and Standards Institute) guidelines, identifying the lowest concentration at which full inhibition of the bacteria or fungi has been detected. […]
Fungi strains were cultured for 3 days on Yeast Extract-Peptone Dextrose (YPD) agar at 30° C. A yeast suspension of 1×106 to 5×10^6 CFU/mL (as determined by OD530) was prepared from five colonies. […]

[4] = system: Pseudomonas aeruginosa (PA14); assay: Pa biofilm formation/growth inhibition assay (crystal violet); format: cell-based; conditions: phenylalanine deficient biofilm assay
[5] = system: Ca and/or Cn (Candida albicans, Cryptococcus neoformans); assay: CO-ADD preliminary screen and hit confirmation against fungi; format: cell-based; conditions: two replicated lots, mixtures of enantiomers or diastereomers; for preliminary activity against Ca and/or Cn (preliminary screen): single concentration
Experimental: as §1, §2, §3
Growth inhibition of C. albicans was determined measuring absorbance at 530 nm (OD530), while the growth inhibition of C. neoformans was determined measuring the difference in absorbance between 600 and 570 nm (OD600-570), after the addition of resazurin (0.001% final concentration) and incubation at 35° C. for additional 2 h. The absorbance was measured using a Biotek Synergy HTX plate reader. The percentage of growth inhibition was calculated for each well, using the negative control (media only) and positive control (bacteria without inhibitors) on the same plate as references. Percentage growth inhibition of an individual sample is calculated based on Negative controls (media only) and Positive Controls (bacterial/fungal media without inhibitors). Negative inhibition values indicate that the growth rate (or OD600) is higher compared to the Negative Control (Bacteria/fungi only, set to 0% inhibition). The growth rates for all bacteria and fungi has a variation of −/+10%, which is within the reported normal distribution of bacterial/fungal growth.
In addition, two values are used as quality controls for individual plates: Z′-Factor [1−(3*(sd(NegCtrl)+sd(PosCtrl))/(average(PosCtrl)−average(NegCtrl)))] and Standard Antibiotic controls at different concentrations (>MIC and <MIC). […] Active samples are defined as those with inhibition values equal to or above 80% and abs(Z-Score) above 12.51 for either replicate (n=2 on different plates) were classed as active. Partially active compounds are defined as those with inhibition values between 50.9%-79.9% or abs(Z-Score) below 12.51.
Samples were prepared in DMSO and water to a final testing concentration of 32 μg/mL or 20 μM and serially diluted 1:2 fold for 8 times. […]

In the case of `C[C@H](N)C(=O)N[C@@H](Cc1ccc(F)cc1)C(=O)O` (single isomer, unassigned) [25a], the “hit confirmation against Acinetobacter baumannii” value [1] is reported as “hit confirmation was observed” and the “activity against Acinetobacter baumannii in the preliminary screen” value (shortened to “activity against Acinetobacter baumannii”) [1] is reported as “not seen”.
For `C[C@H](N)C(=O)N[C@@H](Cc1cccc(F)c1)C(=O)O` (single isomer, unassigned) [44a], the “hit confirmation against Acinetobacter baumannii” value [1] was “hit confirmation was observed” and the “activity against Acinetobacter baumannii” value [1] was “not seen”.
With `N[C@@H](Cc1ccc(O)cc1)C(=O)N[C@@H](Cc1cccc(F)c1)C(=O)O` (single isomer, unassigned) [45a] the “hit confirmation against Acinetobacter baumannii” value [1] was “hit confirmation was observed” and the “activity against Acinetobacter baumannii” value [1] was “not seen”.
In the case of `N[C@H](Cc1ccc(O)cc1)C(=O)O` [D-Tyrosine], the “trigger for the disassembly of bacterial biofilms” value [2] is listed as “particularly active”.
For `C[C@H](N)C(=O)NC(Cc1ccc(F)cc1)C(=O)O` (stereo partly drawn) [compound 25, (2R,2S)-[2-((S)-2-aminopropanamido)]-3-(4-fluorophenyl)propanoic acid], the “inhibitory effects on the growth of Cryptococcus neoformans (Cn)” value [3] was “exhibited inhibitory effects”, the “ability to inhibit the growth of P. aeruginosa (Pa) in a biofilm assay” value [4] was “potent ability to inhibit the growth” and the “activity against Ca and/or Cn confirmed (hit confirmation)” value (from here on “activity against Ca and/or Cn confirmed”) [5] was “confirmed”.
For `NCC(=O)NC(Cc1ccc(F)cc1)C(=O)O` [compound 30, (2R,2S)-[2-(2-aminoacetamido)]-3-(4-fluorophenyl)propanoic acid] (H-Gly-[ξPhe(4-F)]-OH), the “preliminary activity against Ca and/or Cn (preliminary screen)” value (from here on “preliminary activity … (preliminary screen)”) [5] was “preliminary activity”.
For `C[C@H](N)C(=O)NC(Cc1ccccc1F)C(=O)O` (stereo partly drawn) [compound 36, (2R,2S)-[2-((S)-2-aminopropanamido)-3-(2-fluorophenyl)]propanoic acid], the “inhibitory effects on the growth of Cryptococcus neoformans (Cn)” value [3] was “exhibited inhibitory effects”, the “ability to inhibit the growth of P. aeruginosa (Pa) in a biofilm assay” value [4] was “potent ability to inhibit the growth” and the “activity against Ca and/or Cn confirmed” value [5] was “confirmed”.
In the case of `NCC(=O)NC(Cc1cccc(F)c1)C(=O)O` [compound 43, (2R,2S)-[2-(2-aminoacetamido)]-3-(3-fluorophenyl)propanoic acid] (H-Gly-[ξPhe(3-F)]-OH), the “preliminary activity … (preliminary screen)” value [5] is reported as “preliminary activity”.
For `C[C@H](N)C(=O)NC(Cc1cccc(F)c1)C(=O)O` (stereo partly drawn) [compound 44, (2R,2S)-[2-((S)-2-aminopropanamido)]-3-(3-fluorophenyl)propanoic acid], the “activity against Ca and/or Cn confirmed” value [5] was “confirmed”.
With `N[C@@H](Cc1ccc(O)cc1)C(=O)NC(Cc1cccc(F)c1)C(=O)O` (stereo partly drawn) [compound 45, (2R,2S)-[2-((S)-2-amino-3-(4-hydroxyphenyl)propanamido)]-3-(3-fluorophenyl)propanoic acid] the “preliminary activity … (preliminary screen)” value [5] was “preliminary activity”.
For `CC(C)C[C@H](N)C(=O)NC(Cc1cccc(F)c1)C(=O)O` (stereo partly drawn) [compound 46, (2R,2S)-[2-((S)-2-amino-4-methylpentanamido)]-3-(3-fluorophenyl)propanoic acid], the “preliminary activity … (preliminary screen)” value [5] was “preliminary activity”.
For `O=C(O)C(Cc1cccc(F)c1)NC(=O)[C@@H]1CCCN1` (stereo partly drawn) [compound 48, (2R,2S)-[3-(3-fluorophenyl)]-2-((S)-pyrrolidine-2-carboxamido)propanoic acid] (H-Pro-[ξPhe(3-F)]-OH), the “preliminary activity … (preliminary screen)” value [5] was “preliminary activity”.
In the case of `N[C@H](C(=O)NC(Cc1cccc(F)c1)C(=O)O)c1ccccc1` (stereo partly drawn) [compound 52, (2R,2S)-[2-((S)-2-amino-2-phenylacetamido)]-3-(3-fluorophenyl)propanoic acid], the “preliminary activity … (preliminary screen)” value [5] is reported as “preliminary activity”.
In the case of `C[C@@H](O)[C@H](N)C(=O)NC(Cc1ccc(F)cc1)C(=O)O` (stereo partly drawn) [compound 108, (2R,2S)-[((2S,3R)-2-amino-3-hydroxybutanamido)]-3-(4-fluorophenyl)propanoic acid] (H-Thr-[ξPhe(4-F)]-OH), the “ability to inhibit the growth of P. aeruginosa (Pa) in a biofilm assay” value [4] is reported as “had shown activity”.
